Test results published in patent US12528802B2, “Heterocyclic compound” (Takeda Pharmaceutical Company Limited, priority 2019, dated 2026).

Molecular target: T1, glucosylceramide synthase (Homo sapiens, UniProt Q16739)
T1 construct: made in house; host or cells: Expi293F cells (transient expression, pcDNA3.3-TOPO vector); microsome fraction used as enzyme source
T1 sequence (Q16739 1-394): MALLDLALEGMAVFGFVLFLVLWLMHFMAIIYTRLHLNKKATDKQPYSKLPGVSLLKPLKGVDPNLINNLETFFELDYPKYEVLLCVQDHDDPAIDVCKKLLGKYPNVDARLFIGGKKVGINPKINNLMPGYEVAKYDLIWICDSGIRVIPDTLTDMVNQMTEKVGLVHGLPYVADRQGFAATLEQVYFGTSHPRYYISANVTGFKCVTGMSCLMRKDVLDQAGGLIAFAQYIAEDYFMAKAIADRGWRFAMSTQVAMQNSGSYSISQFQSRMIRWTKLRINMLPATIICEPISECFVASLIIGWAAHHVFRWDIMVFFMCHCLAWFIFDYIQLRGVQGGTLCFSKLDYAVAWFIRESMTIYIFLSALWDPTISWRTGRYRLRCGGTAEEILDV
Assay: Glucosylceramide synthase (GCS) enzyme assay, microsome fraction, C8 glucosylceramide quantified by Rapidfire MS/MS
Assay type: biochemical
Conditions: test compound 10 μM; 1.7 μM UDP-glucose, 3 μM C8 ceramide; room temperature 60 min; read-out: GCS enzyme inhibitory rate at 10 μM (%) (% of control)
Protocol: Glucosylceramide Synthase (GCS) Assay
In enzyme assay, a microsome fraction obtained by transient expression by Expi293F™ cells (catalog number: A14527, Thermo Fisher Scientific) was used as a glucosylceramide synthase source. Liposomal C8 ceramide and UDP-glucose were used as substrates. […] After the enzymatic reaction, the analysis was performed with Rapidfire MS/MS (API-4000™, SCIEX), and C8 glucosylceramide was quantified to evaluate the inhibitory activity of the test compound against glucosylceramide synthase activity.
PcDNA3.3TOPO vector (catalog number: K830001, Thermo Fisher Scientific) into which the human GCS gene was inserted was introduced into Expi293F™ Cells (catalog number: A14527, Thermo Fisher Scientific) by using ExpiFectamine™ 293 Transfection Kit (catalog number: A14525, Thermo Fisher Scientific). The cultured cells were dissolved in D-PBS (catalog number: 048-29805, Fuji Film Wako Pure Chemical Industries, Ltd.) containing 1 mM PMSF, and the solution was allowed to stand on ice for 30 minutes, and then subjected to cell disruption (homogenized). The disruption solution was centrifuged at 10,000×g for 20 minutes at 4° C., and the obtained supernatant was centrifuged at 142,400×g for 60 minutes at 4° C. The obtained precipitate was resuspended in a D-PBS solution containing 1 mM PMSF, and homogenized again to prepare as a microsome fraction. Protein quantification was performed by the CBB method.
A 1 mM compound solution prepared by dissolving the test compound in DMSO was added to a 384-well plate by 100 nL so that the final concentration of the test compound was 10 μM. Next, a substrate solution consisting of 3.4 μM UDP-glucose and 6 μM C8 ceramide was added by 5 μL, followed by an enzyme solution consisting of a 25 μg/mL microsome fraction by 5 μL. C8 ceramide was prepared from liposomes composed of 15 mol % C8 ceramide and 85 mol % dioleoyl phosphatidylcholine (1,2-dioleoyl-sn-glycero-3-phosphocholine: DOPC). The enzymatic reaction was carried out in a solution consisting of 20 mM tris-hydrochloric acid buffer (pH 7.5), 0.01% Tween 20, 0.01% bovine serum albumin and 1 mM dithiothreitol at room temperature for 60 min. Then, a solution consisting of 75% isopropanol and 1% formic acid containing 0.25 μM N-Octadecanoyl-D35-psichosine (catalog number: 1914, Matreya) as an internal standard substance was added by 60 μL to stop the enzymatic reaction. 5 μL of the centrifugal supernatant of the obtained reaction product was analyzed by Rapidfire MS/MS (Agilent Technologies) using API-4000™ (SCIEX), and the C8 glucosylceramide was quantified to evaluate the inhibitory activity of the test compound against the glucosylceramide synthase activity. The inhibitory activity of the test compound was evaluated when the C8 glucosylceramide level in the enzyme-free solution was considered as 100% inhibitory and the enzyme activity of the DMSO group in the absence of the compound was considered as 0% inhibitory.

Row | SMILES | inhibition at 10 µM [%]
1 | O=C1c2ccnc(-c3ccccc3OCC(F)(F)F)c2CN1c1ccc(C2(F)COC2)cc1 [Example 214, 2-[4-(3-fluorooxetan-3-yl)phenyl]-4-[2-(2,2,2-trifluoroethoxy)phenyl]-2,3-dihydro-1H-pyrrolo[3,4-c]pyridin-1-one] | 100
2 | O=C1c2ccnc(-c3ccccc3OCC(F)(F)F)c2CN1c1ccc(C2(O)CCOCC2)cc1 [Example 242, 2-[4-(4-hydroxyoxan-4-yl)phenyl]-4-[2-(2,2,2-trifluoroethoxy)phenyl]-2,3-dihydro-1H-pyrrolo[3,4-c]pyridin-1-one] | 100
3 | COC(=O)c1ccc(N2CC3=C(OC[C@@H](C)N=C3c3ccccc3OCC(F)(F)F)C2=O)cc1 [Example 333, methyl 4-{(3R)-3-methyl-8-oxo-5-[2-(2,2,2-trifluoroethoxy)phenyl]-2,3,6,8-tetrahydro-7H-pyrrolo [3,4-f][1,4]oxazepin-7-yl}benzoate] | 97
4 | Cn1nc(-c2ccccc2OCC(F)(F)F)c2c1CN(c1ccc(F)cc1)C2 [Example 205, 5-(4-fluorophenyl)-1-methyl-3-[2-(2,2,2-trifluoroethoxy)phenyl]-1,4,5,6-tetrahydropyrrolo[3,4-c]pyrazole] | 83
5 | CC(O)(c1ccc(N2Cc3c(ccnc3-c3ccccc3OCC(F)(F)F)C2=O)cc1)C(F)F (racemic) [Example 308, rac-2-[4-(1,1-difluoro-2-hydroxypropan-2-yl)phenyl]-4-[2-(2,2,2-trifluoroethoxy)phenyl]-2,3-dihydro-1H-pyrrolo[3,4-c]pyridin-1-one] | 100
6 | Cc1cc2c(c(-c3ccccc3OCC(F)(F)F)n1)CN(c1ccc(OCC(C)(C)O)cc1)C2=O [Example 364, 2-[4-(2-hydroxy-2-methylpropoxy)phenyl]-6-methyl-4-[2-(2,2,2-trifluoroethoxy)phenyl]-2,3-dihydro-1H-pyrrolo [3,4-c]pyridin-1-one] | 100

Further lines, results first:

Row | inhibition at 10 µM [%] | SMILES
7 | 81 | O=C1CCCN1Cc1ccc(N2Cc3c(ccnc3-c3ccc(F)cc3OCC(F)(F)F)C2=O)cc1 [Example 211, 4-[4-fluoro-2-(2,2,2-trifluoroethoxy)phenyl]-2-{4-[(2-oxopyrrolidin-1-yl)methyl]phenyl}-2,3-dihydro-1H-pyrrolo[3,4-c]pyridin-1-one]
8 | 99 | CC(O)c1ccc(N2Cc3c(ccnc3-c3ccc(F)cc3OCC(F)(F)F)C2=O)cc1 (racemic) [Example 282, rac-4-[4-fluoro-2-(2,2,2-trifluoroethoxy)phenyl]-2-[4-(1-hydroxyethyl)phenyl]-2,3-dihydro-1H-pyrrolo[3,4-c] pyridin-1-one]
9 | 95 | CC(C)(O)c1ccc(N2Cc3c(ccnc3-c3cc(F)c(F)cc3OCC(F)(F)F)C2=O)cc1 [Example 322, 4-[4,5-difluoro-2-(2,2,2-trifluoroethoxy)phenyl]-2-[4-(2-hydroxypropan-2-yl)phenyl]-2,3-dihydro-1H-pyrrolo [3,4-c]pyridin-1-one]
10 | 100 | CC(O)(c1ccc(N2Cc3c(ccnc3-c3ccc(F)cc3OCC(F)(F)F)C2=O)cc1)C(F)F (single isomer, unassigned) [Example 311, (R or S)-2-[4-(1,1-difluoro-2-hydroxypropan-2-yl)phenyl]-4-[4-fluoro-2-(2,2,2-trifluoroethoxy)phenyl]-2,3-dihydro-1H-pyrrolo[3,4-c]pyridin-1-one]
11 | 98 | O=C1c2ccnc(-c3ccccc3OCC(F)(F)F)c2CN1c1ccc(C(O)C(F)(F)F)nc1 (racemic) [Example 249, rac-4-[2-(2,2,2-trifluoroethoxy)phenyl]-2-[6-(2,2,2-trifluoro-1-hydroxyethyl)pyridin-3-yl]-2,3-dihydro-1H-pyrrolo[3,4-c]pyridin-1-one]
12 | 88 | O=C1c2ccnc(-c3ccc(F)cc3OCC(F)(F)F)c2CN1c1ccc(C(O)C(F)(F)F)c(F)c1 (racemic) [Example 293, rac-4-[4-fluoro-2-(2,2,2-trifluoroethoxy)phenyl]-2-[3-fluoro-4-(2,2,2-trifluoro-1-hydroxyethyl)phenyl]-2,3-dihydro-1H-pyrrolo [3,4-c]pyridin-1-one]
